Test results as given in ChEMBL document CHEMBL4814012, “Synthesis and structure-activity relationships of 5-phenyloxazole-2-carboxylic acid derivatives as novel inhibitors of tubulin polymerization” (Bioorg Med Chem Lett, 2021).

How the values were obtained:
[1] = system: HeLa; assay: Cytotoxicity against human HeLa cells assessed as reduction in cell growth by CCK8 assay; assay type: functional, cell-based
[2] = system: HepG2; assay: Cytotoxicity against human HepG2 cells assessed as reduction in cell growth by CCK8 assay; assay type: functional, cell-based
[3] = system: A549; assay: Cytotoxicity against human A549 cells assessed as reduction in cell growth by CCK8 assay; assay type: functional, cell-based
[4] = target: Tubulin; assay: (§1) Inhibition of tubulin polymerization (unknown origin) measured every 30 secs for 90 mins; assay type: protein-complex assay, Homo sapiens
[5] = target: T1, Tubulin (Homo sapiens) (UniProt P68371+Q9H4B7+P0DPH7+P68366+Q13509+Q71U36+P04350+Q3ZCM7+P07437+P68363+Q9BQE3+Q6PEY2+Q13885+Q9BVA1+Q9BUF5); assay: Inhibition of tubulin polymerization (unknown origin) at 40 uM measured every 30 secs for 90 mins relative to control; assay type: protein-complex assay
[6] = Selectivity ratio of IC50 for human BEAS-2B cells to IC50 for human A549 cells; assay type: toxicity; conditions: BEAS-2B cells versus A549 cells, read-out: Ratio IC50
[7] = system: BEAS-2B; assay: Cytotoxicity against human BEAS-2B cells assessed as reduction in cell growth by CCK8 assay; assay type: cell-based
[8] = system: A549; assay: Induction of cell cycle arrest in human A549 cells assessed as accumulation at G1 phase at 1 uM after 24 hrs by flow cytometric analysis (reference value: 70.48%); assay type: functional
[9] = system: A549; assay: Induction of cell cycle arrest in human A549 cells assessed as accumulation at S phase at 1 uM after 24 hrs by flow cytometric analysis (reference value: 15.44%); assay type: functional
[10] = target: T1, Tubulin (Homo sapiens); assay: as §1; assay type: protein-complex assay
[11] = system: A549; assay: Induction of cell cycle arrest in human A549 cells assessed as accumulation at G2/M phase at 1 uM after 24 hrs by flow cytometric analysis (reference value: 14.08%); assay type: functional

SMILES	IC50 [1] [µM]	IC50 [2] [µM]	IC50 [3] [µM]	also measured
COc1cccc(-c2cnc(C(=O)c3ccccc3)o2)c1	> 30	> 30	> 30	–
COc1cc(-c2cnc(C(=O)Nc3ccc([N+](=O)[O-])cc3)o2)cc(OC)c1OC	> 30	> 30	> 30	–
O=C(c1ccc(O)cc1)c1ncc(-c2ccccc2)o1	> 30	> 30	> 30	–
COc1ccc(C(=O)c2ncc(-c3ccc(OC)cc3)o2)cc1	> 30	> 30	> 30	–
Cc1ccc(NC(=O)c2ncc(-c3ccccc3)o2)cc1	> 30	> 30	> 30	–
O=C(c1ncc(-c2ccccc2)o1)N1CCN(c2ccccc2)CC1	> 30	> 30	> 30	–
COc1ccc(NC(=O)c2ncc(-c3cc(OC)c(OC)c(OC)c3)o2)cc1	20.5	> 30	25.8	–
COc1ccc(-c2cnc(C(=O)Nc3ccc(O)cc3)o2)cc1F	1.12	1.81	1.2	IC50 [4]: > 40 µM; inhibition [5]: 46%; selectivity ratio [6]: 2.17; IC50 [7]: 2.6 µM
COc1cc2c(c(OC)c1OC)-c1ccc(OC)c(=O)cc1[C@@H](NC(C)=O)CC2 [COLCHICINE]	–	–	0.053	IC50 [7]: 0.016 µM
CCN(CC)c1ccc(NC(=O)c2ncc(-c3ccccc3)o2)cc1	> 30	> 30	> 30	–
COc1cc(-c2cnc(C(=O)c3ccccc3)o2)cc(OC)c1OC	> 30	> 30	> 30	–
COc1ccc(NC(=O)c2ncc(-c3ccc(O)cc3)o2)cc1	9.67	17.3	11.3	–
O=C(Nc1cccc(O)c1)c1ncc(-c2ccccc2)o1	> 30	> 30	> 30	–
COc1cc(C(=O)c2ncc(-c3ccccc3)o2)cc(OC)c1OC	> 30	> 30	> 30	–
O=C(c1ncc(-c2ccccc2)o1)N1CCN(c2ccc(Cl)cc2)CC1	> 30	> 30	> 30	–
COc1cc(-c2cnc(C(=O)Nc3ccc(O)cc3)o2)cc(OC)c1OC	> 30	> 30	> 30	–
COc1ccc(NC(=O)c2ncc(-c3ccccc3)o2)cc1	> 30	> 30	> 30	–
O=C(Nc1ccc(O)cc1)c1ncc(-c2ccc(F)cc2)o1	> 30	> 30	> 30	–
COc1cc(-c2cnc(C(=O)Nc3ccc(F)cc3)o2)cc(OC)c1OC	> 30	> 30	> 30	–
O=C(Nc1ccc(O)cc1)c1ncc(-c2ccccc2)o1	0.78	1.27	1.08	Activity [8]: 1.14%; Activity [9]: 13.05%; IC50 [4]: 16.7 µM; inhibition [10]: Dose-Dependent Effect; inhibition [5]: 91%; selectivity ratio [6]: 3.11; Activity [11]: 85.81%; IC50 [7]: 3.36 µM
CN(C)c1ccc(NC(=O)c2ncc(-c3ccccc3)o2)cc1	> 30	> 30	> 30	–
COc1ccc(-c2cnc(C(=O)Nc3ccc(O)cc3)o2)cc1	1.44	2.76	1.93	IC50 [4]: > 40 µM; inhibition [5]: 27%; selectivity ratio [6]: 2.37; IC50 [7]: 4.58 µM
COc1cc(-c2cnc(C(=O)Nc3ccccc3)o2)cc(OC)c1OC	27.3	> 30	> 30	–
COc1ccc(-c2cnc(C(=O)c3ccccc3)o2)cc1	> 30	> 30	> 30	–
O=C(Nc1ccc(Cl)cc1)c1ncc(-c2ccccc2)o1	> 30	> 30	> 30	–
